The results in this text go back to US5700804A, “Pharmaceutical compounds” (Xenova Limited, priority 1992, dated 1997).

Where a name gives a salt, the structure may show the parent alone.

The target of this assay is PAI-1 (Homo sapiens, UniProt P05121). Description: PAI chromogenic substrate assay (first S2251 assay, tPA/plasminogen system). The format is biochemical. The method, then:
In this assay, a compound is incubated with PAI-1 prior to addition to the tPA assay system. Inhibition of PAI-1 results in the production of plasmin from plasminogen. In turn, plasmin cleaves the chromogenic substrate S2251 (Kabi Vitrum) producing pNA (p-nitroaniline) which is detected spectrophotometrically at 405 nm (K. Nilsson et al, Fibrinolysis (1987) 1, 163-168).
Compounds of formula (A) were tested in a PAI chromogenic substrate assay. In the first assay (K. Nilsson, Fibrinolysis (1987) 1, 163-168) each compound was incubated with PAI-1 prior to addition to the tPA assay system. […] In turn, the plasmin cleaved the chromogenic substrate S2251 (Kabi-Vitrum) producing pNA (p-nitroaniline) which was detected spectrophotometrically at 405 nm.

PAI-1, sequence (P05121 24-402): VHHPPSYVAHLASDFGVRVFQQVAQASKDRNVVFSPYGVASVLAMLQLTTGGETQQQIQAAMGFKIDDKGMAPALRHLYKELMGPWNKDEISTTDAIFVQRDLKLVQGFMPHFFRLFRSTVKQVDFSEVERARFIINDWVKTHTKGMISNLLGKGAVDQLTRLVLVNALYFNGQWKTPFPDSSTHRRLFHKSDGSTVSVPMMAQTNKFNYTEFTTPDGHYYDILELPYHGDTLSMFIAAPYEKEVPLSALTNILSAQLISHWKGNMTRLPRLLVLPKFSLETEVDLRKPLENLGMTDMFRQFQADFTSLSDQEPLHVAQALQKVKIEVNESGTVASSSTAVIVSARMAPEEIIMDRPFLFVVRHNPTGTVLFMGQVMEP

Consider `CN(C)CCOc1ccc(/C=c2\[nH]c(=O)/c(=C/c3ccccc3)[nH]c2=O)cc1` [Compound 99, (3Z,6Z)-6-Benzylidene-3-(4-(2-N,N-dimethylaminoethoxy)benzylidene)-2,5-piperazinedione, hydrochloride], for which the Inhibition of PAI-1 in the first S2251 chromogenic substrate assay came out at 0% (Concentration 2.5 μm); 0% (Concentration 5 μm); 17% (Concentration 10 μm); 48% (Concentration 20 μm); 68% (Concentration 40 μm).

Regarding `CC(=O)Nc1ccc(/C=c2\[nH]c(=O)/c(=C/c3ccc(N(C)C)cc3)[nH]c2=O)cc1` [Compound 86, (3Z,6Z)-3-(4-Acetamidobenzylidene)-6-(4-dimethylaminobenzylidene)-2,5-piperazinedione], the Inhibition of PAI-1 in the first S2251 chromogenic substrate assay is 31% (Concentration 6.25 μm); 41% (Concentration 12.5 μm); 48% (Concentration 25 μm); 37% (Concentration 50 μm); 23% (Concentration 100 μm).

Turning to `COc1ccc(/C=c2\[nH]c(=O)/c(=C/c3ccccc3)[nH]c2=O)cc1` [Compound 3, (3Z,6Z,)-6-benylidene-3-(4-methoxybenzylidene)-2,5-piperazinedione], the Inhibition of PAI-1 in the first S2251 chromogenic substrate assay stood at 14% (Concentration 6 μm); 40% (Concentration 12 μm); 53% (Concentration 25 μm); 74% (Concentration 50 μm); 86% (Concentration 100 μm).

`COC(=O)COc1ccc(/C=c2\[nH]c(=O)/c(=C/c3ccccc3)[nH]c2=O)cc1` [Compound 93, 4-[(3Z,6Z)-6-Benzylidene-2,5-dioxopiperazin-3-ylidene]methylphenoxyacetic acid, methyl ester] returned an Inhibition of PAI-1 in the first S2251 chromogenic substrate assay (Concentration 6.25 μm) of 2%; an Inhibition of PAI-1 in the first S2251 chromogenic substrate assay (Concentration 12.5 μm) of 7%; an Inhibition of PAI-1 in the first S2251 chromogenic substrate assay (Concentration 25 μm) of 39%; an Inhibition of PAI-1 in the first S2251 chromogenic substrate assay (Concentration 50 μm) of 68%; an Inhibition of PAI-1 in the first S2251 chromogenic substrate assay (Concentration 100 μm) of 91%.

Turning to `COc1ccc(/C=c2\[nH]c(=O)/c(=C/c3ccc(NC(=O)COC(C)=O)cc3)[nH]c2=O)cc1` [Compound 87, (3Z,6Z)-3-(4-Acetoxyacetylaminobenzylidene)-6-(4-methoxybenzylidene)-2,5-piperazinedione], the Inhibition of PAI-1 in the first S2251 chromogenic substrate assay is, setting by setting: (Concentration 6.25 μm) 0%; (Concentration 12.5 μm) 28%; (Concentration 25 μm) 70%; (Concentration 50 μm) 81%; (Concentration 100 μm) 78%.

In the case of `CC(=O)Nc1ccc(/C=c2\[nH]c(=O)/c(=C/c3ccc(Cl)cc3)[nH]c2=O)cc1` [Compound 42, (3Z,6Z)-3-(4-Acetamidobenzylidene)-6-(4-chlorobenzylidene)-2,5-piperazinedione], the Inhibition of PAI-1 in the first S2251 chromogenic substrate assay is, setting by setting: (Concentration 3.75 μm) 1%; (Concentration 7.5 μm) 4%; (Concentration 15 μm) 59%; (Concentration 30 μm) 57%; (Concentration 60 μm) 58%.

Regarding `CN(C)CCCOc1ccc(/C=c2\[nH]c(=O)/c(=C/c3ccccc3)[nH]c2=O)cc1` [Compound 75, (3Z,6Z)-6-Benzylidene-3-(4-(3-N,N-dimethylaminopropoxy)benzylidene)-2,5-piperazinedione], the Inhibition of PAI-1 in the first S2251 chromogenic substrate assay reads like this: (Concentration 6.25 μm) 2%; (Concentration 12.5 μm) 6%; (Concentration 25 μm) 33%; (Concentration 50 μm) 52%; (Concentration 100 μm) 59%.

Turning to `COc1ccc(/C=c2\[nH]c(=O)/c(=C/c3ccccc3Br)[nH]c2=O)cc1` [Compound 53, (3Z,6Z)-3-(2-Bromobenzylidene)-6-(4-methoxybenzylidene)-2,5-piperazinedione], the Inhibition of PAI-1 in the first S2251 chromogenic substrate assay was found to be 2% (Concentration 12.5 μm), 9% (Concentration 25 μm), 32% (Concentration 50 μm) and 55% (Concentration 100 μm).

As to `Nc1ccc(/C=c2\[nH]c(=O)/c(=C/c3ccccc3)[nH]c2=O)cc1` [Compound 30, (3Z,6Z)-3-(4-Aminobenzylidene)-6-benzylidene-2,5-piperazinedione], the Inhibition of PAI-1 in the first S2251 chromogenic substrate assay (Concentration 12.5 μm) is 2%, the Inhibition of PAI-1 in the first S2251 chromogenic substrate assay (Concentration 25 μm) is 5%, the Inhibition of PAI-1 in the first S2251 chromogenic substrate assay (Concentration 50 μm) turned out to be 23% and the Inhibition of PAI-1 in the first S2251 chromogenic substrate assay (Concentration 100 μm) worked out at 66%.

The compound `CC(=O)SCc1cccc(/C=c2\[nH]c(=O)/c(=C/c3ccccc3)[nH]c2=O)c1` [Compound 61, (3Z,6Z)-6-Benzylidene-3-(3-thioacetoxymethylbenzylidene)-2,5-piperazinedione] had an Inhibition of PAI-1 in the first S2251 chromogenic substrate assay (Concentration 12.5 μm) of 26%, an Inhibition of PAI-1 in the first S2251 chromogenic substrate assay (Concentration 25 μm) of 69%, an Inhibition of PAI-1 in the first S2251 chromogenic substrate assay (Concentration 50 μm) of 88% and an Inhibition of PAI-1 in the first S2251 chromogenic substrate assay (Concentration 100 μm) of 83%.

As for `O=c1[nH]/c(=C\c2cccc([N+](=O)[O-])c2)c(=O)[nH]/c1=C\c1ccccc1` [Compound 24, (3Z,6Z)-6-Benzylidene-3-(3-nitrobenzylidene)-2,5-piperazinedione], the Inhibition of PAI-1 in the first S2251 chromogenic substrate assay by setting is: (Concentration 3.75 μm) 0%; (Concentration 7.5 μm) 0%; (Concentration 15 μm) 0%; (Concentration 30 μm) 29%; (Concentration 60 μm) 56%.

For `COC(=O)c1cccc(/C=c2\[nH]c(=O)/c(=C/c3ccccc3)[nH]c2=O)c1` [Compound 62, 3-((3Z,6Z)-6-Benzylidene-2,5-dioxopiperazin-3-ylidene)methylbenzoic acid, methyl ester], the Inhibition of PAI-1 in the first S2251 chromogenic substrate assay (Concentration 12.5 μm) was determined as 36%, the Inhibition of PAI-1 in the first S2251 chromogenic substrate assay (Concentration 25 μm) stood at 13%, the Inhibition of PAI-1 in the first S2251 chromogenic substrate assay (Concentration 50 μm) worked out at 33% and the Inhibition of PAI-1 in the first S2251 chromogenic substrate assay (Concentration 100 μm) turned out to be 83%.

Take `COc1ccc(/C=c2\[nH]c(=O)/c(=C/c3ccc(NC(=O)CO)cc3)[nH]c2=O)cc1` [Compound 88, (3Z,6Z)-3-(4-Hydroxyacetylaminobenzylidene)-6-(4-methoxybenzylidene)-2,5-piperazinedione]: the Inhibition of PAI-1 in the first S2251 chromogenic substrate assay is, setting by setting: (Concentration 6.25 μm) 0%; (Concentration 12.5 μm) 40%; (Concentration 25 μm) 60%; (Concentration 50 μm) 49%; (Concentration 100 μm) 41%.

As to `COc1ccc(/C=c2\[nH]c(=O)/c(=C/c3ccc(OC(=O)C(C)(C)C)cc3)[nH]c2=O)cc1` [Compound 81, (3Z,6Z)-3-(4-Methoxybenzylidene)-6-(4-trimethylacetoxybenzylidene)-2,5-piperazinedione], the Inhibition of PAI-1 in the first S2251 chromogenic substrate assay amounted to 0% (Concentration 12.5 μm), 1% (Concentration 25 μm), 1% (Concentration 50 μm) and 64% (Concentration 100 μm).

The compound `COc1ccc(/C=c2\[nH]c(=O)/c(=C/c3ccc(NC(C)=O)cc3)[nH]c2=O)cc1` [Compound 26, (3Z,6Z)-3-(4-Acetamidobenzylidene)-6-(4-methoxybenzylidene)-2,5-piperazinedione] came in with an Inhibition of PAI-1 in the first S2251 chromogenic substrate assay (Concentration 7.5 μm) of 42%, an Inhibition of PAI-1 in the first S2251 chromogenic substrate assay (Concentration 15 μm) of 73%, an Inhibition of PAI-1 in the first S2251 chromogenic substrate assay (Concentration 30 μm) of 71% and an Inhibition of PAI-1 in the first S2251 chromogenic substrate assay (Concentration 60 μm) of 57%.

The compound `CC(=O)Nc1ccc(/C=c2\[nH]c(=O)/c(=C/c3ccc(CNC(=O)OC(C)(C)C)cc3)[nH]c2=O)cc1` [Compound 68, (3Z,6Z)-3-(4-Acetamidobenzylidene)-6-(4-tert-butoxycarbonylaminomethylbenzylidene)-2,5-piperazinedione] returned an Inhibition of PAI-1 in the first S2251 chromogenic substrate assay (Concentration 12.5 μm) of 37%, an Inhibition of PAI-1 in the first S2251 chromogenic substrate assay (Concentration 25 μm) of 67%, an Inhibition of PAI-1 in the first S2251 chromogenic substrate assay (Concentration 50 μm) of 89% and an Inhibition of PAI-1 in the first S2251 chromogenic substrate assay (Concentration 100 μm) of 63%.

Turning to `COc1ccc(/C=c2\[nH]c(=O)/c(=C/c3ccc(F)cc3F)[nH]c2=O)cc1` [Compound 69, (3Z,6Z)-3-(2,4-Difluorobenzylidene)-6-(4-methoxybenzylidene)-2,5-piperazinedione], the Inhibition of PAI-1 in the first S2251 chromogenic substrate assay is, setting by setting: (Concentration 12.5 μm) 3%; (Concentration 25 μm) 14%; (Concentration 50 μm) 40%; (Concentration 100 μm) 68%.

For the compound `Nc1ccccc1/C=c1\[nH]c(=O)/c(=C/c2ccccc2)[nH]c1=O` [Compound 39, (3Z,6Z)-3-(2-Aminobenzylidene)-6-benzylidene-2,5-piperazinedione], the Inhibition of PAI-1 in the first S2251 chromogenic substrate assay reads like this: (Concentration 6.25 μm) 0%; (Concentration 12.5 μm) 1%; (Concentration 25 μm) 1%; (Concentration 50 μm) 20%; (Concentration 100 μm) 67%.
